We go through 22 molecules from PubChem BioAssay AID328 (DTP/NCI, 2004).

The test system of this test is BDF1 mice, P388 leukemia ip, median survival T/C. Kind of test: NCI In Vivo Anticancer Drug Screen. Data for tumor model P388 Leukemia (intraperitoneal) in B6D2F1 (BDF1) mice. The following applies: endpoint: median survival time, higher = longer survival. The method in brief:
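In tumour-bearing mice, survival after compound treatment is set against the vehicle group and given as a quotient.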

[1] abbreviates: dose: 100.0 mg/kg/injection, schedule: Q04DX003 (ip), vehicle: saline with Tween-80.
Setting [2] is: dose: 200.0 mg/kg/injection, schedule: Q04DX003 (ip), vehicle: saline with Tween-80.
[3] abbreviates: dose: 100.0 mg/kg/injection, schedule: Q04DX003 (ip), vehicle: other.
The mark [4] stands for this setting: dose: 200.0 mg/kg/injection, schedule: Q04DX003 (ip), vehicle: other.
The mark [5] stands for this setting: dose: 400.0 mg/kg/injection, schedule: Q04DX003 (ip), vehicle: other.
[6] abbreviates: dose: 12.5 mg/kg/injection, schedule: Q01DX009 (ip), vehicle: saline with Tween-80.
Setting [7] is: dose: 50.0 mg/kg/injection, schedule: Q01DX009 (ip), vehicle: saline with Tween-80.
[8] abbreviates: dose: 100.0 mg/kg/injection, schedule: Q01DX009 (ip), vehicle: saline with Tween-80.
[9] abbreviates: dose: 200.0 mg/kg/injection, schedule: Q01DX009 (ip), vehicle: saline with Tween-80.
The mark [10] stands for this setting: dose: 400.0 mg/kg/injection, schedule: Q01DX009 (ip), vehicle: saline with Tween-80.
Setting [11] is: dose: 400.0 mg/kg/injection, schedule: Q04DX003 (ip), vehicle: saline with Tween-80.
[12] abbreviates: dose: 50.0 mg/kg/injection, schedule: Q01DX009 (ip), vehicle: saline.
Where [13] appears, read: dose: 100.0 mg/kg/injection, schedule: Q01DX009 (ip), vehicle: saline.
Where [14] appears, read: dose: 200.0 mg/kg/injection, schedule: Q01DX009 (ip), vehicle: saline.

Where “and” joins values, the source holds several entries; their conditions need not be identical. Identical values can stand only once. Inconclusive results and toxic doses are left out. Residues, ends and D or L forms follow the SMILES beside them. *: point of attachment. Trt = c1ccc(C(c2ccccc2)(c2ccccc2)*)cc1

Regarding `COC(=O)C(NC(=O)C(N)CSC(c1ccccc1)(c1ccccc1)c1ccccc1)C(C)C` (configuration not stated) (H-Cys(Trt)-Val-OMe; configuration not given here), the T/C is, setting by setting: (dose: 50.0 mg/kg/injection, schedule: Q01DX009 (sc), vehicle: olive oil, sesame oil, peanut oil) 117 % of control; (dose: 50.0 mg/kg/injection, schedule: Q04DX003 (sc), vehicle: olive oil, sesame oil, peanut oil) 90 % of control; (dose: 100.0 mg/kg/injection, schedule: Q01DX009 (sc), vehicle: olive oil, sesame oil, peanut oil) 104 % of control; (dose: 100.0 mg/kg/injection, schedule: Q04DX003 (sc), vehicle: olive oil, sesame oil, peanut oil) 90 % of control; (dose: 200.0 mg/kg/injection, schedule: Q01DX009 (sc), vehicle: olive oil, sesame oil, peanut oil) 104 % of control; (dose: 200.0 mg/kg/injection, schedule: Q04DX003 (sc), vehicle: olive oil, sesame oil, peanut oil) 100 % of control.

`C/C(=C/c1cc2c(cc1Br)OCO2)[N+](=O)[O-]`: the T/C is 98 % of control (dose: 25.0 mg/kg/injection, schedule: Q04DX003 (ip), vehicle: saline with Tween-80); 98 % of control (dose: 50.0 mg/kg/injection, schedule: Q04DX003 (ip), vehicle: saline with Tween-80); 100 % of control and 106 % of control under setting [1]; 115 % of control under setting [2].

Regarding `Nn1nc2ccccc2n1`, the T/C was 100 % of control under setting [3], 100 % of control under setting [4] and 100 % of control under setting [5].

For `CCCCCOc1cc(C(=O)NN)nc(C(=O)NN)c1`, the T/C (dose: 1.56 mg/kg/injection, schedule: Q01DX009 (ip), vehicle: saline with Tween-80) is 103 % of control; the T/C (dose: 3.13 mg/kg/injection, schedule: Q01DX009 (ip), vehicle: saline with Tween-80) was 111 % of control; the T/C (dose: 6.25 mg/kg/injection, schedule: Q01DX009 (ip), vehicle: saline with Tween-80) was 111 % of control; the T/C under setting [6] is 116 % of control.

Turning to `COC(=O)C(CSCSC)NC(=O)/C=C/c1ccc(C)cc1` (configuration not stated), the T/C under setting [7] was 109 % of control; the T/C under setting [8] is 109 % of control; the T/C under setting [1] was 91 % of control; the T/C under setting [9] was 92 % of control; the T/C under setting [2] was 91 % of control; the T/C under setting [10] was 100 % of control. In addition, under setting [11], the T/C is 88 % of control.

Consider `NC(C(=O)O)C(O)c1ccc2c(c1)OCO2` (configuration not stated), for which the T/C was 95 % of control under setting [8], 105 % of control under setting [9] and 95 % of control under setting [10].

Take `N#CC(O)Cc1ccccc1` (configuration not stated): the T/C is 100 % of control (dose: 2.5 mg/kg/injection, schedule: Q01DX009 (ip), vehicle: other); 100 % of control (dose: 5.0 mg/kg/injection, schedule: Q01DX009 (ip), vehicle: other); 100 % of control (dose: 10.0 mg/kg/injection, schedule: Q01DX009 (ip), vehicle: other).

In the case of `CCN(CC)c1ccc(NC(=O)Nc2ccccc2C)cc1`, the T/C was 95 % of control under setting [1], 95 % of control under setting [2] and 90 % of control under setting [11].

For the molecule `N=C(N)SCc1c2ccccc2cc2ccccc12`, the T/C was 163 % of control under setting [2] and 90 % of control (dose: 300.0 mg/kg/injection, schedule: Q04DX003 (ip), vehicle: saline with Tween-80).

`O=C1C(F)=C(N2CC2)C(=O)C(N2CCOCC2)=C1N1CC1`: the T/C reads like this: (dose: 3.0 mg/kg/injection, schedule: Q01DX009 (ip), vehicle: saline) 157 % of control; (dose: 6.0 mg/kg/injection, schedule: Q01DX009 (ip), vehicle: saline) 99 % of control.

For `CCCC(C)C(C)CC` (configuration not stated), the T/C runs as follows: (dose: 6.25 mg/kg/injection, schedule: Q01DX001 (ip), vehicle: saline with Tween-80) 91 % of control; (dose: 12.5 mg/kg/injection, schedule: Q01DX001 (ip), vehicle: saline with Tween-80) 104 % of control; (dose: 25.0 mg/kg/injection, schedule: Q01DX001 (ip), vehicle: saline with Tween-80) 116 % of control.

On to `O=C1CCCC2C3CC(CN12)C1CC(O)CCN1C3` (configuration not stated), for which the T/C is, setting by setting: (dose: 20.0 mg/kg/injection, schedule: Q01DX010 (ip), vehicle: saline) 90 % of control; (dose: 40.0 mg/kg/injection, schedule: Q01DX010 (ip), vehicle: saline) 100 % of control; (dose: 80.0 mg/kg/injection, schedule: Q01DX010 (ip), vehicle: saline) 100 % of control.

`CN(C)c1ccc(/C=C/c2ccc3ccccc3n2)c(F)c1`: the T/C is 90 % of control (dose: 100.0 mg/kg/injection, schedule: Q04DX003 (ip), vehicle: Klucel (hydroxypropylcellulose) (HPC)); 95 % of control (dose: 200.0 mg/kg/injection, schedule: Q04DX003 (ip), vehicle: Klucel (hydroxypropylcellulose) (HPC)); 90 % of control (dose: 400.0 mg/kg/injection, schedule: Q04DX003 (ip), vehicle: Klucel (hydroxypropylcellulose) (HPC)).

Turning to `Cn1ncc2c(N)c(C#N)c(=O)[nH]c21`, the T/C (dose: 100.0 mg/kg/injection, schedule: Q01DX001 (ip), vehicle: saline with Tween-80) was 114 % of control.

As for `O=S(=O)(Oc1ccccc1)C(F)(F)C(F)(F)C(F)(F)C(F)(F)F`, the T/C runs as follows: under setting [12], 109 % of control; under setting [13], 106 % of control; under setting [14], 109 % of control.

On to `O=C(CC(O)(C(F)(F)F)C(F)(F)F)c1ccccc1Cl`, for which the T/C is 120 % of control under setting [1], 100 % of control under setting [2] and 120 % of control under setting [11].

`C/C(=C\Cl)CN(C)C`: the T/C runs as follows: (dose: 56.25 mg/kg/injection, schedule: Q01DX001 (ip), vehicle: saline) 100 % of control; (dose: 56.25 mg/kg/injection, schedule: Q04DX003 (ip), vehicle: saline) 95 % of control; (dose: 112.5 mg/kg/injection, schedule: Q01DX001 (ip), vehicle: saline) 86 % of control; (dose: 112.5 mg/kg/injection, schedule: Q04DX003 (ip), vehicle: saline) 90 % of control; (dose: 150.0 mg/kg/injection, schedule: Q01DX009 (ip), vehicle: saline) 105 % of control; (dose: 225.0 mg/kg/injection, schedule: Q01DX001 (ip), vehicle: saline) 100 % of control. Also, the T/C (dose: 225.0 mg/kg/injection, schedule: Q01DX009 (ip), vehicle: saline) was 105 % of control.

For the molecule `O=C(O)CC(NC(=O)OCc1ccccc1)C(=O)OCc1ccccc1` (configuration not stated), the T/C is 92 % of control under setting [7]; 111 % of control under setting [8]; 104 % of control under setting [1]; 111 % of control under setting [9]; 113 % of control under setting [2]; 100 % of control under setting [10]. Besides, the T/C under setting [11] was 90 % of control.

For the molecule `O=C(NCCCCCCCCCCNC(=O)N1CC1)N1CC1`, the T/C was 154 % of control (dose: 3.0 mg/kg/injection, schedule: Q04DX003 (ip), vehicle: saline with Tween-80) and 241 % of control (dose: 4.5 mg/kg/injection, schedule: Q04DX003 (ip), vehicle: saline with Tween-80).

`COc1ccccc1/C=N/NC(=O)c1ccccc1`: the T/C runs as follows: under setting [1], 100 % of control; under setting [2], 104 % of control; under setting [11], 104 % of control.

As to `CC(C)CC(B1OCCO1)(C1CCCCC1)C1CCCCC1`, the T/C is, setting by setting: under setting [6], 100 % of control; (dose: 25.0 mg/kg/injection, schedule: Q01DX009 (ip), vehicle: saline with Tween-80) 100 % of control; under setting [7], 90 % of control; under setting [3], 109 % of control; under setting [4], 122 % of control; under setting [5], 122 % of control.

In the case of `Cc1ncc(O)c(CO)c1O`, the T/C runs as follows: under setting [12], 110 % of control; under setting [13], 94 % of control; under setting [14], 99 % of control; (dose: 400.0 mg/kg/injection, schedule: Q01DX009 (ip), vehicle: saline) 107 % of control.
